Experimental data as given in patent US10314308B2, “Microbiocidal benzoxaboroles” (SYNGENTA PARTICIPATIONS AG, priority 2015, dated 2019).

Legend:
[1] = tested on: Phaeosphaeria Nodorum (Septoria Nodorum); assay: Phaeosphaeria nodorum (Septoria nodorum) / wheat / leaf disc preventative (glume blotch); assay type: in vivo; conditions: Parastagonospora nodorum, foliar, wheat leaf segments cv Kanzler, inoculated 2 days after application, assessed 5-7 days after application, read-out: disease control
Summary of the method: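 Wheat cv Kanzler leaf discs on agar were sprayed with formulated compound, then inoculated with spores 2 days later. Incubation at 20° C, 75% RH, 12/12 h light/dark; percent disease control versus untreated assessed 5-7 days after application.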

[2] = tested on: Glomerella Lagenarium(Colletotrichum Ladenarium); assay: Glomerella lagenarium (Colletotrichum lagenarium) / liquid culture (anthracnose); assay type: cell-based; conditions: PDB potato dextrose broth, 24° C., 3-4 days after application, read-out: disease control (inhibition of growth, photometrically)
Summary of the method: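 Compound dissolved in DMSO was combined with potato dextrose broth carrying conidia taken directly from cryogenic storage. Photometric growth inhibition readings were taken after 3–4 days of incubation at 24 °C.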

[3] = tested on: Mycosphaerella Arachidis(Cercospora Arachidicola); assay: Mycosphaerella arachidis (Cercospora arachidicola) / liquid culture (early leaf spot); assay type: cell-based; conditions: PDB potato dextrose broth, 24° C., 4-5 days after application, read-out: disease control (inhibition of growth, photometrically)
Summary of the method: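 Growth inhibition was read photometrically 4-5 days post-application, following incubation at 24 °C. Test compounds in DMSO were combined with fungal spores from cryogenic storage suspended in potato dextrose broth.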

Pythium Ultimum = assay: Pythium ultimum / liquid culture (seedling damping off); assay type: cell-based; conditions: Globisporangium ultimum, potato dextrose broth, 24° C., 2-3 days after application, read-out: disease control (inhibition of growth, photometrically)
[4] = tested on: Thanatephorus Cucumeris(Rhizoctonia Solani); assay: Thanatephorus cucumeris (Rhizoctonia solani) / liquid culture (foot rot, damping-off); assay type: cell-based; conditions: PDB potato dextrose broth, 24° C., 3-4 days after application, read-out: disease control (inhibition of growth, photometrically)
Summary of the method: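 Photometric growth-inhibition read 3-4 days after treatment at 24° C. Compounds applied from DMSO at 200 ppm, then fungal mycelium fragments in PDB broth added.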

[5] = tested on: Monographella Nivalis(Microdochium Nivale); assay: Monographella nivalis (Microdochium nivale) / liquid culture (foot rot cereals); assay type: cell-based; conditions: PDB potato dextrose broth, 24° C., 4-5 days after application, read-out: disease control (inhibition of growth, photometrically)
Summary of the method: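 Growth inhibition measured photometrically after 4-5 days at 24° C. Test compound in DMSO was combined with nutrient broth (PDB) carrying conidia taken directly from cryogenic storage.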

Fusarium Culmorum = assay: microbe, parasite or virus in culture; assay type: cell-based; conditions: read-out: disease control (inhibition of growth, photometrically)
Gaeumannomyces Graminis = assay: Gaeumannomyces graminis / liquid culture (take-all of cereals); assay type: cell-based; conditions: PDB potato dextrose broth, 24° C., 4-5 days after application, read-out: disease control (inhibition of growth, photometrically)
Summary of the method: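 Liquid-culture growth assay: compound delivered as DMSO solution, then fungal inoculum in potato dextrose broth added. Photometric read of growth inhibition after 4-5 days at 24° C.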

Sclerotinia Sclerotiorum = assay: Sclerotinia sclerotiorum / liquid culture (cottony rot); assay type: cell-based; conditions: PDB potato dextrose broth, 24° C., 3-4 days after application, read-out: disease control (inhibition of growth, visually)
Summary of the method: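 Growth inhibition was read by eye 3-4 days post-application at 24° C. Compounds (DMSO solution) were combined with potato dextrose broth seeded with mycelia fragments from a newly grown liquid culture.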

[6] = tested on: Botryotinia Fuckeliana(Botrytis Cinerea); assay: Botryotinia fuckeliana (Botrytis cinerea) / liquid culture (gray mould); assay type: cell-based; conditions: Vogels broth, 24° C., 3-4 days after application, read-out: disease control (inhibition of growth, photometrically)
Description: 9 Botryotinia Fuckeliana(Botrytis Cinerea)/Liquid Culture (Gray Mould) Conidia of the fungus from cryogenic storage were directly mixed into nutrient broth (Vogels broth). After placing a DMSO solution of test compound into a 96-well microtiter plate, the nutrient broth containing the fungal spores was added. The test plates were incubated at 24° C. and the inhibition of growth was determined photometrically 3-4 days after application.

[7] = tested on: Mycosphaerella Graminicola(Septoria Tritici); assay: Mycosphaerella graminicola (Septoria tritici) / liquid culture (Septoria blotch); assay type: cell-based; conditions: Zymoseptoria tritici, PDB potato dextrose broth, 24° C., 4-5 days after application, read-out: disease control (inhibition of growth, photometrically)
Summary of the method: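 Growth inhibition measured by photometry 4-5 days post-application, at 24 °C, in liquid culture of spores taken straight from cryogenic storage into potato dextrose broth, with test compound supplied in DMSO.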

Plasmopara Viticola = assay: whole plant or invertebrate; assay type: in vivo; conditions: foliar, read-out: disease control
[8] = tested on: Puccinia Recondita f. sp. Tritici; assay: Puccinia recondita f. sp. tritici / wheat / leaf disc preventative (brown rust); assay type: in vivo; conditions: foliar, wheat leaf segments cv Kanzler, inoculated 1 day after application, assessed 7-9 days after application, read-out: disease control
Description: 3 Puccinia Recondita f. sp. Tritici/Wheat/Leaf Disc Preventative (Brown Rust) Wheat leaf segments cultivated variety (cv) Kanzler were placed on agar in 24-well plates and sprayed with formulated test compound diluted in water. The leaf disks were inoculated with a spore suspension of the fungus 1 day after application. The inoculated leaf segments were incubated at 19° C. and 75% relative humidity under a light regime of 12/12 h (light/dark) in a climate cabinet and the activity of a compound was assessed as percent disease control compared to untreated when an appropriate level of disease damage appears in untreated check leaf segments (7-9 days after application).

Phytophthora Infestans = assay: whole plant or invertebrate; assay type: in vivo; conditions: in Solanum lycopersicum, foliar, read-out: disease control

Compound | melting point | pest or weed control at 200 ppm [1] | inhibition at 20 ppm [2] | inhibition at 20 ppm [3] | inhibition at 20 ppm (Pythium Ultimum) | inhibition at 20 ppm [4] | inhibition at 20 ppm [5] | inhibition at 20 ppm (Fusarium Culmorum) | inhibition at 20 ppm (Gaeumannomyces Graminis) | inhibition at 20 ppm (Sclerotinia Sclerotiorum) | inhibition at 20 ppm [6] | inhibition at 20 ppm [7] | pest or weed control at 200 ppm (Plasmopara Viticola) | pest or weed control at 200 ppm [8] | pest or weed control at 200 ppm (Phytophthora Infestans)
OB1OCc2cc(Cl)c(-c3cccs3)cc21 [Compound 3] | 125 to 135 °C | ≥ 80% | ≥ 80% | ≥ 80% | ≥ 80% | ≥ 80% | ≥ 80% | ≥ 80% | ≥ 80% | ≥ 80% | ≥ 80% | ≥ 80% | ≥ 80% | ≥ 80% | 
OB1OCc2cc(F)c(-c3cnoc3)cc21 [Compound 11] | 230 to 232 °C | ≥ 80% |  | ≥ 80% | ≥ 80% |  | ≥ 80% | ≥ 80% | ≥ 80% | ≥ 80% |  | ≥ 80% |  |  | ≥ 80%
OB1OCc2cc(F)c(-c3ccc(Cl)nc3)cc21 [Compound 13, 2-chloro-5-(5-fluoro-1-hydroxy-3H-2,1-benzoxaborol-6-yl)pyridine] | 213 to 215 °C |  |  |  | ≥ 80% |  | ≥ 80% |  | ≥ 80% |  |  |  | ≥ 80% |  | ≥ 80%
Cc1csc(-c2cc3c(cc2Cl)COB3O)n1 [Compound 15] |  |  | ≥ 80% | ≥ 80% | ≥ 80% | ≥ 80% | ≥ 80% | ≥ 80% | ≥ 80% | ≥ 80% |  | ≥ 80% | ≥ 80% |  | ≥ 80%
Cc1ncsc1-c1cc2c(cc1Cl)COB2O [Compound 16] |  |  | ≥ 80% | ≥ 80% | ≥ 80% |  | ≥ 80% | ≥ 80% | ≥ 80% | ≥ 80% | ≥ 80% | ≥ 80% | ≥ 80% |  | ≥ 80%
CC1N=C(c2cc3c(cc2Cl)COB3O)S/C1=N/O (stereo not shown) [Compound 17] |  |  | ≥ 80% | ≥ 80% | ≥ 80% |  | ≥ 80% | ≥ 80% | ≥ 80% | ≥ 80% | ≥ 80% | ≥ 80% |  |  | ≥ 80%
O/N=C/c1ccc(-c2cc3c(cc2F)COB3O)o1 [Compound 27] | 200 to 220 °C |  | ≥ 80% | ≥ 80% | ≥ 80% |  | ≥ 80% |  |  |  |  |  | ≥ 80% |  | ≥ 80%
OB1OCc2cc(F)c(-c3ncno3)cc21 [Compound 29] | 204 to 206 °C | ≥ 80% | ≥ 80% | ≥ 80% | ≥ 80% | ≥ 80% | ≥ 80% | ≥ 80% | ≥ 80% | ≥ 80% | ≥ 80% | ≥ 80% |  |  | ≥ 80%
